Experiments:
PRKD1 (PKC mu) = target: T1, PRKD1 (PKC mu) (Homo sapiens, UniProt Q15139); assay: SelectScreen Z'LYTE kinase profiling; assay type: biochemical; conditions: ATP at apparent KM
T1 sequence (Q15139 1-912): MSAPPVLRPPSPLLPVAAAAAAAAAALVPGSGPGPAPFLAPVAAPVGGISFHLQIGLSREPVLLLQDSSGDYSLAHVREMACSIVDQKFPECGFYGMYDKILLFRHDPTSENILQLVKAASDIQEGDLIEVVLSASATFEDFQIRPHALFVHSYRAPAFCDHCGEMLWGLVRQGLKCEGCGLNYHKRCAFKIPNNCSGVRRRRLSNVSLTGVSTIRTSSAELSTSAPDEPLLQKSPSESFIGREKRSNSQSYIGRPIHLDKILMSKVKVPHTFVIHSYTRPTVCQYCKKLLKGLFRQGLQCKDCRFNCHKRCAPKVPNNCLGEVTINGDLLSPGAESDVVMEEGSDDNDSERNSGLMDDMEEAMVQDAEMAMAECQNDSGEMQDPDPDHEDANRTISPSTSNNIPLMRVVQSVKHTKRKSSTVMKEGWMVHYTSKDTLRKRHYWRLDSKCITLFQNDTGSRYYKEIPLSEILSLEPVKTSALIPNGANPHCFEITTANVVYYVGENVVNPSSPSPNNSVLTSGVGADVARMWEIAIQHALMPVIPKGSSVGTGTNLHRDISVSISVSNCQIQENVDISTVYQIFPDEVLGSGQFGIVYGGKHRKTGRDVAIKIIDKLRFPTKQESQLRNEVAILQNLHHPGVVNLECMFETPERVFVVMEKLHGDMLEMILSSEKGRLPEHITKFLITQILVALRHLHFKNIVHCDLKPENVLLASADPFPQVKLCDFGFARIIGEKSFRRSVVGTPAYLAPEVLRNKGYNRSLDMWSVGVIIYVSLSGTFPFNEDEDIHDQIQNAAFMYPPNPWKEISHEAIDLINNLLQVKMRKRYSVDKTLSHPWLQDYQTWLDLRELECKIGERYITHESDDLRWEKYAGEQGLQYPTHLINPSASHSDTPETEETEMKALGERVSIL
Description: (§1) protein kinases at a compound concentration of 1 µM. Measurements were performed in duplicates
(§2) and at the particular apparent ATP KM of each individual kinase employing the activity based Z’LYTE®
(§3) kinase assay of the SelectScreen® Kinase Profiling Services (ThermoFisher Scientific).
(§4) kinases at a compound concentration of 1 µM. Measurements were performed in duplicates and at
(§5) the particular apparent ATP KM of each individual kinase employing the activity based Z’LYTE® kinase
(§6) assay of the SelectScreen® Kinase Profiling Services (ThermoFisher Scientific).

PRKCE (PKC epsilon) = target: T2, PRKCE (PKC epsilon) (Homo sapiens, UniProt Q02156); assay: SelectScreen Z'LYTE kinase profiling; assay type: biochemical; conditions: ATP at apparent KM
T2 sequence (Q02156 1-737): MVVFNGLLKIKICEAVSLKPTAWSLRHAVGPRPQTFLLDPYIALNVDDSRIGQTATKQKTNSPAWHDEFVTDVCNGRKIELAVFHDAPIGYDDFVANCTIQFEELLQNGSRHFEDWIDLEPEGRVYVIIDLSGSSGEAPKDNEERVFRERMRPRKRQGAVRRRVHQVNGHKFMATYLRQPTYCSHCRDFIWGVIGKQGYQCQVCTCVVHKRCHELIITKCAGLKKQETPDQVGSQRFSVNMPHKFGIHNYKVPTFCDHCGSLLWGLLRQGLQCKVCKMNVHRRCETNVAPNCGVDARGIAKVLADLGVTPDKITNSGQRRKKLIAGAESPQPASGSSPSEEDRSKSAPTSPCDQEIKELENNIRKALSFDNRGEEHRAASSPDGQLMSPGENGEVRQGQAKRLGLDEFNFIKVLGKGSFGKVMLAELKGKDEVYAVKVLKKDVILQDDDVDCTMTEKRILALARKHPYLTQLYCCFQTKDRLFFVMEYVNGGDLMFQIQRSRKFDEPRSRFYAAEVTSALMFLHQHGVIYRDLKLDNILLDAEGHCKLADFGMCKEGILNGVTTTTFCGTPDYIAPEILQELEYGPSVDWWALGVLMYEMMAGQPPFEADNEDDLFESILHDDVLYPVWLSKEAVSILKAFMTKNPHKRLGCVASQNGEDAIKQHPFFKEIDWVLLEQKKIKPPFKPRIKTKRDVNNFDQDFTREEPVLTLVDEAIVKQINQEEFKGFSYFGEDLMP
Description: as §1, §2, §3, §4, §5, §6

RPS6KA4 (MSK2) = RPS6KA4 (MSK2) (Homo sapiens, UniProt O75676); assay: SelectScreen Z'LYTE kinase profiling; assay type: biochemical; conditions: ATP at apparent KM
Description: as §1, §2, §3, §4, §5, §6

EPHB4 = target: T3, EPHB4 (Homo sapiens, UniProt P54760); assay: SelectScreen Z'LYTE kinase profiling; assay type: biochemical; conditions: ATP at apparent KM
T3 sequence (P54760 16-987): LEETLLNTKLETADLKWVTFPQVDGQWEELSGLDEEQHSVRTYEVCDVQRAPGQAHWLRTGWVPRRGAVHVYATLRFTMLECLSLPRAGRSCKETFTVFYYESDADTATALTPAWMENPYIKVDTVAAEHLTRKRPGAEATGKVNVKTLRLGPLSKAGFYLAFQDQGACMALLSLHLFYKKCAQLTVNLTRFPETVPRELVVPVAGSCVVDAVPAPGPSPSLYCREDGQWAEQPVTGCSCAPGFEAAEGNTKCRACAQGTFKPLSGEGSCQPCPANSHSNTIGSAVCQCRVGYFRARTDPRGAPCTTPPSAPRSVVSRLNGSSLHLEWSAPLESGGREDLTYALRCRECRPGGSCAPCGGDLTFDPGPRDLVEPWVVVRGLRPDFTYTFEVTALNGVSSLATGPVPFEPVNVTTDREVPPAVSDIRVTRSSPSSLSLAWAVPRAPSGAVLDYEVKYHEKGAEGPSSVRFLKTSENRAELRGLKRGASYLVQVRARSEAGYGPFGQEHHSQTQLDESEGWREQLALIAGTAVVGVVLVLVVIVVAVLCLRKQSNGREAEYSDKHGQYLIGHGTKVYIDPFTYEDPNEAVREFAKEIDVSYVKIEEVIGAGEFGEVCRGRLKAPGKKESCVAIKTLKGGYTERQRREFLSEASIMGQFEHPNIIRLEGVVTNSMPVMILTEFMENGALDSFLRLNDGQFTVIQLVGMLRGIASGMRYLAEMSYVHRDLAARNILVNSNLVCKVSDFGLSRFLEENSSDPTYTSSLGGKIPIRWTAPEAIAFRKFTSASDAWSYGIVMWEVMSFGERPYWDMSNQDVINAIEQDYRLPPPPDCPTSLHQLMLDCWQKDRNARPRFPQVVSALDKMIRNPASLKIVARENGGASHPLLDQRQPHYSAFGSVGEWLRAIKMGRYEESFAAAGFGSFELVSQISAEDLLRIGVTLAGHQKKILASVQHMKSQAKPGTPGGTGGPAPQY
Description: as §1, §2, §3, §4, §5, §6

MAPK1 (ERK2) = MAPK1 (ERK2) (Homo sapiens, UniProt P28482); assay: SelectScreen Z'LYTE kinase profiling; assay type: biochemical; conditions: ATP at apparent KM
Description: as §1, §2, §3, §4, §5, §6

NTRK2 (TRKB) = NTRK2 (TRKB) (Homo sapiens, UniProt Q16620); assay: SelectScreen Z'LYTE kinase profiling; assay type: biochemical; conditions: ATP at apparent KM
Description: as §1, §2, §3, §4, §5, §6

[1] = Phase I metabolic stability assay; conditions: human, liver microsomes
Description: For this purpose, we used a microsomal stability assay that is a good predictor for phase I metabolic stability.[50]
Metabolic stability under oxidative conditions was determined by LCMS-based measuring of
degradation of compounds at 3 µM in human and murine liver microsomes over 60 minutes at 37 °C
Calculating the compound half-life t1/2, the in vitro intrinsic clearance CLint is

Sequence of RPS6KA4 (MSK2) (O75676 whole entry): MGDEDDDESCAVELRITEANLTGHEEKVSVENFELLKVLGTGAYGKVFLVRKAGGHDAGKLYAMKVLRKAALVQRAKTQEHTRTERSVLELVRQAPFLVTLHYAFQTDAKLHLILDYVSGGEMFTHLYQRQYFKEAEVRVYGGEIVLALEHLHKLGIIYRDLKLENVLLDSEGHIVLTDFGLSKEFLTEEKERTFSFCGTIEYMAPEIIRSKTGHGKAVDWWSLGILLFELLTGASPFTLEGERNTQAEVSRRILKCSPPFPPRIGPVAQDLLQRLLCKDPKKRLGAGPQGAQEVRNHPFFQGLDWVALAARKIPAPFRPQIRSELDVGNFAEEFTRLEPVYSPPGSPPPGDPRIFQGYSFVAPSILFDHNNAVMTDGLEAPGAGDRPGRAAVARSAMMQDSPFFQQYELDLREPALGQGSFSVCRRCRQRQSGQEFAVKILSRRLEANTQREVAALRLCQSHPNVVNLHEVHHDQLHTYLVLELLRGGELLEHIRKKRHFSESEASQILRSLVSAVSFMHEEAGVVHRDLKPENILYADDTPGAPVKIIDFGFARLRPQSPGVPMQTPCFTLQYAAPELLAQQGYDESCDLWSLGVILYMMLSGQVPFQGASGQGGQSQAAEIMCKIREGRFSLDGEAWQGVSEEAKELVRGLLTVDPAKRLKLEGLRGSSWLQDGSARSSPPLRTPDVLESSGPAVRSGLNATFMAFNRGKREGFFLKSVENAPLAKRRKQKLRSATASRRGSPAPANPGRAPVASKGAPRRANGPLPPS
Sequence of MAPK1 (ERK2) (P28482 whole entry): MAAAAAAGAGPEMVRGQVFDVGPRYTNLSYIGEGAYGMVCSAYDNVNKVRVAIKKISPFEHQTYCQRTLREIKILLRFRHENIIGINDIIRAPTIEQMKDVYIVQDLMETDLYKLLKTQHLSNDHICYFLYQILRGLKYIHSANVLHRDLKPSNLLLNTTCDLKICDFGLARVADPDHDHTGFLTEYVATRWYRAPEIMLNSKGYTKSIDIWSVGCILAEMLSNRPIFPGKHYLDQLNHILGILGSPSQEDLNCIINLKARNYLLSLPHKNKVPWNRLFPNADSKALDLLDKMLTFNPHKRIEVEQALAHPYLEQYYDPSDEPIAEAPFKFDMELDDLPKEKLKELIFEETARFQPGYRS
Sequence of NTRK2 (TRKB) (Q16620 32-822): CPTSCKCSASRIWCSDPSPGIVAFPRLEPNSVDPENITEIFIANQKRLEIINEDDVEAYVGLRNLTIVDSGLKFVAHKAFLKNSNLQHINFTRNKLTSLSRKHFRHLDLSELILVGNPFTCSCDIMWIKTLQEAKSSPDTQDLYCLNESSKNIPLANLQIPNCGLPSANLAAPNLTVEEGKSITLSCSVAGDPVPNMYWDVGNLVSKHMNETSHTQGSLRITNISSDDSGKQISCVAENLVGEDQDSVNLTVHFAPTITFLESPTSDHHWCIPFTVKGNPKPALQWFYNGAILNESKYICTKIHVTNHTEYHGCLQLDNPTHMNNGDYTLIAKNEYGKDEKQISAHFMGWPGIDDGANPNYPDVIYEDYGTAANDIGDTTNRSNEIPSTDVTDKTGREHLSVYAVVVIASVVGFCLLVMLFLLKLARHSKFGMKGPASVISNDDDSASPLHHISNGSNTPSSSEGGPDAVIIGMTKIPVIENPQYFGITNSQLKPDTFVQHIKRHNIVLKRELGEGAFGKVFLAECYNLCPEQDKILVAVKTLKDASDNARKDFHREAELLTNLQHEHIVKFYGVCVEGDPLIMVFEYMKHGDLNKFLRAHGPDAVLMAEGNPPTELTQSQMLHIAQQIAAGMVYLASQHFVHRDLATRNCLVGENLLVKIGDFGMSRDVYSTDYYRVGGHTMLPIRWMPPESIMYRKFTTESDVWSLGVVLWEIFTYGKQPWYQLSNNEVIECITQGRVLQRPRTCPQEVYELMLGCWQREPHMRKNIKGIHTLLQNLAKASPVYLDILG

Row | Compound | inhibition at 1 µM (PRKD1 (PKC mu)) [%] | inhibition at 1 µM (PRKCE (PKC epsilon)) [%] | inhibition at 1 µM (RPS6KA4 (MSK2)) [%] | inhibition at 1 µM (EPHB4) [%] | inhibition at 1 µM (MAPK1 (ERK2)) [%] | inhibition at 1 µM (NTRK2 (TRKB)) [%] | half-life at 1 h, 3 µM [1] [min] | microsomal CLint at 3 µM [1] [µL/min/mg]
1 | C=CC(=O)Nc1cccc(C(=O)NC2CCN(Cc3ccc(-c4nc5cc[nH]c(=O)c5cc4-c4ccccc4)cc3)CC2)c1 [30b] | 6 | 27 | 11 | 1 | 13 | 8 | 58 | 8
2 | C=CC(=O)Nc1ccc2c(c1)n(C1CCN(Cc3ccc(-c4nc5cc[nH]c(=O)c5cc4-c4ccccc4)cc3)CC1)c(=O)n2C [24b] | 13 | 12 | 9 | 4 | 2 | 0 | 25 | 19
3 | C=CC(=O)Nc1cc(NC(=O)NC2CCN(Cc3ccc(-c4nc5cc[nH]c(=O)c5cc4-c4ccccc4)cc3)CC2)ccc1Cl [compound 27] | 17 | 11 | 16 | 4 | 11 | 1 | 19 | 24

Reference: article PMC6430017, “Structural and chemical insights into the covalent-allosteric inhibition of the protein kinase Akt” (Chemical Science, 2019)
